Test results: patent US7951956B2, “Benzoimidazole compound capable of inhibiting prostaglandin D synthetase” (Taiho Pharmaceuticals Co., Ltd., priority 2005, dated 2011)

Molecular target: human hematopoietic synthase (Homo sapiens, UniProt O60760)
Experiment: Hematopoietic synthase inhibitory activity (Experiment 1)
Format: biochemical
Conditions: [14C] prostaglandin H2 10 μM, preincubated at 25° C. for 5 minutes, 1 minute reaction; read-out: Concentration of Pharmaceutical Compound Required to Inhibit 50% of Hematopoietic Synthase
Protocol: Experiment 1 was carried out according to the method of Urade, Y. et al. (J. Biol. Chem. 262, 3820-3825, (1987)). More specifically, the reaction mixture (49 μL); 100 mM Tris-HCl (pH 8.0), 1 mM reduced glutathione, 0.1 mg/mL γ-globulin, and human hematopoietic synthase (quantum sufficient), and a test compound (final concentration: 0.01-100 μM) were preincubated at 25° C. for 5 minutes. In place of the test compound, a DMSO solution (final concentration: 1%) was used in the solvent control group (Control Group). Subsequently, 1 μL of [^14C] prostaglandin H2 (final concentration: 10 μM) was added to start the reaction. One minute after the start of the reaction, 250 μL of a reaction stopper solution (diethylether/methanol/1M citric acid (30/4/1) cooled to −20° C. was added to stop the reaction.
Thereafter, 50 μL of the upper layer portion (organic solvent phase) was applied to a TLC plate and developed at −20° C. for 45 minutes (developer: diethylether/methanol/acetic acid (capacity ratio=90/2/1)). After drying the plate, the plate was exposed to an imaging plate for 1 to 24 hours, and the radioactivity corresponding to prostaglandin D2 was analyzed using an image analyzer (product of FUJIFILM Corporation). The area (%) occupied by the prostaglandin D2 band per lane was calculated, and the concentration of the test compound required to inhibit 50% of the hematopoietic synthase (IC50 value) was calculated by comparison with the Control group in each experiment.

Sequence of human hematopoietic synthase (O60760 whole entry): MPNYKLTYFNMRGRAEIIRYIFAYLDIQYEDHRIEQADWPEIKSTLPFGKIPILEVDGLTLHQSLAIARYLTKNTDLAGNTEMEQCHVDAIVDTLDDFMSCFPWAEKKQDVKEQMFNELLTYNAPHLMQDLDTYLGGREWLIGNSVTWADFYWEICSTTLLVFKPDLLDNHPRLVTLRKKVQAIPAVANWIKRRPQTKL

| SMILES | IC50 |
| --- | --- |
| Cc1coc(C)c1-c1nc2cc(C(=O)c3ccccc3)ccc2[nH]1 [Compound 1, 5-Benzoyl-2-(2,4-dimethylfuran-3-yl)-benzimidazole] | 796 nM |
| Cc1oc(C(N)=O)c(C)c1-c1nc2cc(C(=O)c3ccccc3)ccc2[nH]1 [Compound 2, 4-(5-Benzoylbenzimidazol-2-yl)-3,5-dimethylfuran-2-carboxamide] | 274 nM |
| O=C(c1ccccc1)c1ccc2[nH]c(-c3c[nH]c(C(=O)O)c3)nc2c1 [Compound 5, 4-(5-Benzoylbenzimidazol-2-yl)-pyrrole-2-carboxylic acid] | 1450 nM |
| O=C(c1ccccc1)c1ccc2[nH]c(-c3c[nH]c(C(=O)N4CCCC4)c3)nc2c1 [Compound 6, ((4-(5-Benzoylbenzimidazol-2-yl)-pyrrol-2-yl)-carbonyl)pyrrolidine] | 1740 nM |
| Cc1c[nH]c(C)c1-c1nc2cc(C(=O)c3ccccc3)ccc2[nH]1 [Compound 7, 2-(2,4-Dimethyl-pyrrol-3-yl)-5-benzoylbenzimidazole] | 588 nM |
| Cc1[nH]c(/C=C/C#N)c(C)c1-c1nc2cc(C(=O)c3ccccc3)ccc2[nH]1 [Compound 9, 2-(2-Acrylonitrile-3,5-dimethyl-pyrrol-4-yl)-5-benzoylbenzimidazole] | 110 nM |
| CCOC(=O)C1CCN(C(=O)c2[nH]c(C)c(-c3nc4cc(C(=O)c5ccccc5)ccc4[nH]3)c2C)CC1 [Compound 44, ((4-(5-Benzoylbenzimidazol-2-yl)-3,5-dimethylpyrrol-2-yl)-carbonyl)-4-ethoxycarbonylpiperidine] | 1670 nM |
| Cc1[nH]c(C(=O)N2CCC(C(=O)N(C)CCN(C)C)CC2)c(C)c1-c1nc2cc(C(=O)c3ccccc3)ccc2[nH]1 [Compound 47, N-Methyl-N-(2-dimethylaminoethyl)-1-((4-(5-benzoylbenzimidazol-2-yl)-3,5-dimethylpyrrol-2-yl)-carbonyl)piperidine-4-carboxamide] | 269 nM |
| Cc1[nH]c(C(=O)N2CCC(C(=O)NCCCN(C)C)CC2)c(C)c1-c1nc2cc(C(=O)c3ccccc3)ccc2[nH]1 [Compound 48, N-(3-Dimethylaminopropyl)-1-((4-(5-benzoylbenzimidazol-2-yl)-3,5-dimethylpyrrol-2-yl)-carbonyl)piperidine-4-carboxamide] | 124 nM |
| COCCCNC(=O)C1CCN(C(=O)c2[nH]c(C)c(-c3nc4cc(C(=O)c5ccccc5)ccc4[nH]3)c2C)CC1 [Compound 49, N-(3-Methoxypropyl)-1-((4-(5-benzoylbenzimidazol-2-yl)-3,5-dimethylpyrrol-2-yl)-carbonyl)piperidine-4-carboxamide] | 649 nM |
| Cc1[nH]c(C(=O)N2CCC(C(=O)NCC3CCCCC3)CC2)c(C)c1-c1nc2cc(C(=O)c3ccccc3)ccc2[nH]1 [Compound 50, N-Cyclohexylmethyl-1-((4-(5-benzoylbenzimidazol-2-yl)-3,5-dimethylpyrrol-2-yl)-carbonyl)piperidine-4-carboxamide] | 843 nM |
| CN(C)Cc1ccc(-c2nc3cc(C(=O)c4ccccc4)ccc3[nH]2)o1 [Compound 56, 2-(5-Dimethylaminomethyl-furan-2-yl)-5-benzoylbenzimidazole] | 4780 nM |
| O=C(c1ccccc1)c1ccc2[nH]c(-c3ccc(Br)o3)nc2c1 [Compound 58, 2-(5-Bromo-furan-2-yl)-5-benzoylbenzimidazole] | 2370 nM |
| O=C(c1ccccc1)c1ccc2[nH]c(-c3ccc(C(=O)N4CCCC4)o3)nc2c1 [Compound 59] | 3560 nM |
| NC(=O)c1ccc(-c2nc3cc(C(=O)c4ccccc4)ccc3[nH]2)o1 [Compound 60, 5-(5-Benzoylbenzimidazol-2-yl)-furan-2-carboxamide] | 4360 nM |
| O=C(c1ccccc1)c1ccc2[nH]c(-c3ccc(C(=O)NCc4ccc5c(c4)OCO5)o3)nc2c1 [Compound 62, N-(3,4-Methylenedioxyphenylmethyl)-5-(5-benzoylbenzimidazol-2-yl)-furan-2-carboxamide] | 2430 nM |
| O=C(c1ccccc1)c1ccc2[nH]c(-c3ccc(C(=O)N4CCSC4)o3)nc2c1 [Compound 63] | 1250 nM |
| Cc1[nH]c(C(=O)N(C)C)c(C)c1-c1nc2cc(C(=O)c3ccccc3)ccc2[nH]1 [Compound 64, (N,N-Dimethyl)-4-(5-benzoylbenzimidazol-2-yl)-3,5-dimethylpyrrole-2-carboxamide] | 377 nM |
| Cc1[nH]c(C(=O)N(C)O)c(C)c1-c1nc2cc(C(=O)c3ccccc3)ccc2[nH]1 [Compound 65, (N-Hydroxy-N-methyl)-4-(5-benzoylbenzimidazol-2-yl)-3,5-dimethylpyrrole-2-carboxamide] | 124 nM |
| CNC(=O)c1[nH]c(C)c(-c2nc3cc(C(=O)c4ccccc4)ccc3[nH]2)c1C [Compound 66, (N-Methyl)-4-(5-benzoylbenzimidazol-2-yl)-3,5-dimethylpyrrole-2-carboxamide] | 77 nM |
| Cc1[nH]c(C(=O)N2CCOCC2)c(C)c1-c1nc2cc(Oc3ccccc3)ccc2[nH]1 [Compound 71, ((4-(5-Phenoxybenzimidazole-2-yl)-3,5-dimethylpyrrol-2-yl)-2-carbonyl)morpholine] | 870 nM |
| Cc1[nH]c(C(=O)NCCc2ccccn2)c(C)c1-c1nc2cc(Oc3ccccc3)ccc2[nH]1 [Compound 72, N-(2-(2-Pyridyl)ethyl)-4-(5-phenoxybenzimidazole-2-yl)-3,5-dimethylpyrrole-2-carboxamide] | 209 nM |
| CONC(=O)c1[nH]c(C)c(-c2nc3cc(Oc4ccccc4)ccc3[nH]2)c1C [Compound 73, N-(Methoxy)-4-(5-phenoxybenzimidazole-2-yl)-3,5-dimethylpyrrole-2-carboxamide] | 240 nM |
| CON(C)C(=O)c1[nH]c(C)c(-c2nc3cc(Oc4ccccc4)ccc3[nH]2)c1C [Compound 74, (N-Methoxy-N-methyl)-4-(5-phenoxybenzimidazole-2-yl)-3,5-dimethylpyrrole-2-carboxamide] | 263 nM |
| Cc1[nH]c(C#N)c(C)c1-c1nc2cc(Oc3ccccc3)ccc2[nH]1 [Compound 75, 2-(2-Cyano-3,5-dimethylpyrrol-4-yl)-5-phenoxybenzimidazole] | 218 nM |
| Cc1oc(C(N)=O)c(C)c1-c1nc2cc(Oc3ccccc3)ccc2[nH]1 [Compound 76, 4-(5-Phenoxybenzimidazole-2-yl)-3,5-dimethylfuran-2-carboxamide] | 109 nM |
| c1ccc(C(OC2CCN(CCCc3nnn[nH]3)CC2)c2ccccc2)cc1 [HQL-79, 4-benzhydryloxy-1-((3-(1H-tetrazol-5-yl)-propyl))piperidine, reference compound] | 24400 nM |

Test system: not given
Experiment: not given
Conditions: not given

| SMILES | melting point |
| --- | --- |
| O=C(c1ccccc1)c1ccc2[nH]c(-c3ccc(P(=O)(O)O)o3)nc2c1 (hydrate or solvate) [Comparative Example 3, 5-Benzophenone-2-(2-phosphono-5-furanyl)benzimidazole dihydrate] | 224 to 229 °C |
| Cc1coc(C)c1-c1nc2cc(C(=O)c3ccccc3)ccc2[nH]1 [Compound 1, 5-Benzoyl-2-(2,4-dimethylfuran-3-yl)-benzimidazole] | 203 to 208 °C |
| Cc1oc(C(N)=O)c(C)c1-c1nc2cc(C(=O)c3ccccc3)ccc2[nH]1 [Compound 2, 4-(5-Benzoylbenzimidazol-2-yl)-3,5-dimethylfuran-2-carboxamide] | 143 to 146 °C |
| O=C(c1ccccc1)c1ccc2[nH]c(-c3c[nH]c(C(=O)O)c3)nc2c1 [Compound 5, 4-(5-Benzoylbenzimidazol-2-yl)-pyrrole-2-carboxylic acid] | 239 to 241 °C |
| O=C(c1ccccc1)c1ccc2[nH]c(-c3c[nH]c(C(=O)N4CCCC4)c3)nc2c1 [Compound 6, ((4-(5-Benzoylbenzimidazol-2-yl)-pyrrol-2-yl)-carbonyl)pyrrolidine] | 160 to 162 °C |
| Cc1c[nH]c(C)c1-c1nc2cc(C(=O)c3ccccc3)ccc2[nH]1 [Compound 7, 2-(2,4-Dimethyl-pyrrol-3-yl)-5-benzoylbenzimidazole] | 207 to 214 °C |
| Cc1[nH]c(C=O)c(C)c1-c1nc2cc(C(=O)c3ccccc3)ccc2[nH]1 [Compound 8, 2-(2-Formyl-3,5-dimethyl-pyrrol-4-yl)-5-benzoylbenzimidazole] | 253 to 255 °C |
| Cc1[nH]c(/C=C/C#N)c(C)c1-c1nc2cc(C(=O)c3ccccc3)ccc2[nH]1 [Compound 9, 2-(2-Acrylonitrile-3,5-dimethyl-pyrrol-4-yl)-5-benzoylbenzimidazole] | 201 to 203 °C |
| O=C(c1ccccc1)c1ccc2nc(-c3ccc[nH]3)[nH]c2c1 [Compound 51, 5-Benzoyl-2-(pyrrol-2-yl)-benzimidazole] | 128 to 133 °C |
